Laboratory results from publication PMC13223435, “Synthesis and Antiproliferative Activity against Melanoma Cells of New Heterocyclic Hybrids Based on Pyridine and Pyrimidine Scaffolds” (Current Medicinal Chemistry, 2025).

Key:
A375 cells [1] = assay: Annexin V-PE/7-AAD apoptosis assay (Muse); format: cell-based; details: 48 h, early and late apoptotic
Protocol: In this study, A375 cells were initially seeded into 24-well plates at a density of 1×10^4 cells per well. After 24 hours, the cell culture medium was carefully removed, and a new medium containing 16b and 29 at varying final concentrations (1, 5, and 10 µM) was added, followed by an additional 48-hour incubation. Cells in a medium containing 0.2% DMSO served as the control group. After the treatment period, cells were washed with phosphate-buffered saline (PBS), and both the cell medium and PBS wash were retained. The cells were then detached using trypsin and centrifuged. The resulting cell pellet was suspended in a fresh medium after discarding the supernatant. An equivalent volume of Muse Annexin V & Dead Cell Reagent (Luminex Corporation, Austin, TX, USA) was added and thoroughly mixed through repeated pipetting. The staining procedure was conducted for 20 minutes at room temperature in the absence of light. The Muse Cell Analyzer (Luminex Corporation, Austin, TX, USA) was utilized for analysis. This assay detects phosphatidylserine (PS) on apoptotic cell surfaces using annexin V-PE (phycoerythrin) binding. A 7-AAD (7-aminoactinomycin D) marker was used to assess cell membrane integrity. The dual staining approach enabled the identification of four distinct cell groups: viable (Annexin V-PE− and 7-AAD−), early apoptotic (Annexin V-PE+ and 7-AAD−), late apoptotic/dead (Annexin V-PE+ and 7-AAD+), and primarily nuclear debris (Annexin V-PE− and 7-AAD+). The findings were based on at least three separate experimental runs.

A375 cells [2] = assay: Live-cell imaging (time-lapse microscopy); format: cell-based; details: 48 h
Protocol: For live-cell imaging, A375 cells were seeded into 96-well plates at a density of 2×10^3 cells per well and allowed to grow for 24 h before imaging. Next, the cell culture medium was carefully removed, and new medium containing 16b (at 2 µM and 10 µM) and 29 (at 5 µM and 10 µM) was added and the cell culture plate was placed in the imaging chamber of Agilent BioTek Lionheart FX automated microscope (Agilent Technologies, Inc., Santa Clara, CA, USA) equipped with a Plan Fluorite 20x/0.75 objective (Olympus, Nishi-Shinjuki, Tokyo, Japan), and a FLIR Blackfly BFLY-U3-23S6M camera (Teledyne FLIR, Wilsonville, OR, USA). The temperature in the imaging chamber was set to 37°C and CO2 level to 5%. The bright-field images were acquired every 5 minutes for 48 hours.

A375 cells [3] = assay: Cell cycle analysis (PI staining, Muse); format: cell-based; details: 5 h
Protocol: For cell cycle analysis, A375 cells were initially plated in 6-well plates at a density of 1×10^5 cells per well and allowed to culture for 24 hours. Following this incubation period, the culture medium was replaced with fresh medium containing 16b and 29 at final concentrations of 1, 5, and 10 µM, after which the cells were incubated for an additional 5 hours. For control purposes, cells cultured in a medium containing 0.2% DMSO without treatment were utilized. The experimental procedure involved several steps: initially, the cells were rinsed with PBS, and then collected via trypsinization. The resulting cell pellet underwent another PBS wash before being fixed with 70% cold ethanol (Chempur, Piekary Śląskie, Polska) at -20°C for at least 3 hours. Before analysis, the ethanol-fixed cells were centrifuged, washed again with PBS, and then treated with Muse Cell Cycle Reagent (Luminex Corporation, Austin, TX, USA), which includes propidium iodide (PI) and RNAse. This staining process was carried out for 30 minutes at room temperature in the absence of light. The assay relies on PI-based staining of DNA content to differentiate and quantify the percentage of cells in the G0/G1, S, and G2/M phases of the cell cycle. The analysis was performed using the Muse Cell Analyzer (Luminex Corporation, Austin, TX, USA). The obtained findings were derived from a minimum of three independent experiments.

tubulin = molecular target: T1, tubulin (Sus scrofa, UniProt P02550+P02554); assay: Cell free tubulin polymerization assay (fluorescence-based); format: biochemical
T1 construct: purchased Cytoskeleton, Denver, CO, USA
T1 sequence (P02554 whole entry): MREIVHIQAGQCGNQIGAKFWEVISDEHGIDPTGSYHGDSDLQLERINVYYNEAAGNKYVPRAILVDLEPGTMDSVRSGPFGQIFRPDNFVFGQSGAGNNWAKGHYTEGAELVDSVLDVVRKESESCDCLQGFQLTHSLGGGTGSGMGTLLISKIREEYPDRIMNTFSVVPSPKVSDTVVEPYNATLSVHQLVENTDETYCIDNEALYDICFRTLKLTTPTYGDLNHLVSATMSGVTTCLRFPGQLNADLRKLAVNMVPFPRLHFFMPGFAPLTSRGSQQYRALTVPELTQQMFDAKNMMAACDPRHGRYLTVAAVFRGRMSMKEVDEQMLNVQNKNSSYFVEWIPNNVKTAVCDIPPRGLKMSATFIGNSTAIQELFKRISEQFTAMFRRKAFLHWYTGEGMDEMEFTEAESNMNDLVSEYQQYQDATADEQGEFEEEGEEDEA
T1 sequence (P02550 whole entry): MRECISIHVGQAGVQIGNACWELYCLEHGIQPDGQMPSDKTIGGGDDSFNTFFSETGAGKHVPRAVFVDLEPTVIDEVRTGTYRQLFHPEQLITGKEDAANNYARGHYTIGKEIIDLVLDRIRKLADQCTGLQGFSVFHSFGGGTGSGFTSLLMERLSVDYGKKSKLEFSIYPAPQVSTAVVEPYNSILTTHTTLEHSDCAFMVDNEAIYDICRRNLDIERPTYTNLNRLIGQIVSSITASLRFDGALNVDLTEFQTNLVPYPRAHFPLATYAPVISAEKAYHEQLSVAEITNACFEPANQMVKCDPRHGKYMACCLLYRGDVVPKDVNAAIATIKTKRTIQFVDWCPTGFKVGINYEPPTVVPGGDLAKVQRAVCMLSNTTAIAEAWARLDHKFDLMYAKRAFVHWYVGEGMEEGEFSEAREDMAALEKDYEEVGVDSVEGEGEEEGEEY
Protocol: The tubulin polymerization process was evaluated using a tubulin (>99% pure) and fluorescence-based tubulin polymerization kit (Cytoskeleton, Denver, CO, USA). The effects of compounds 16b and 29 (at final concentrations of 1, 10, 50, 100 µM) on tubulin polymerization were evaluated in cell-free conditions. Paclitaxel (PTX) and vinblastine (VBL) (3 µM) were used as references, and DMSO (0.2%) was used as the vehicle control. This assay tracks the process of tubulin polymerization through an increase in fluorescence resulting from the addition of a fluorescence reporter to microtubules as polymerization occurs. After incubating the tested compounds at 37°C for 1 minute, the icy tubulin reaction mixture (2 mg/mL tubulin, 1.0 mM GTP, 15% glycerol in buffer containing 80 mM PIPES, 2.0 mM MgCl2, 0.5 mM EGTA, pH 6.9, and 10 µM fluorescent reporter) was added to the samples, which were then mixed and monitored using a spectrophotometric microplate reader (Infinite 200 Pro, Tecan) at 1-minute intervals for 90 minutes at 37°C (excitation: 360 nm, emission: 450 nm). The software installed on the plate reader was used to compute the maximum slope (Vmax) of the growth phase, measured in RFU/min, as outlined in the manufacturer's instructions. Each polymerization curve's Vmax was then standardized against the control curve's Vmax. The IC50 values were determined using an online tool (AAT Bioquest, Inc., Quest Graph™ IC50 Calculator ((v.1). Retrieved from https://www.aatbio.com/tools/IC50-calculator-v1, accessed on: 2024, May 6).

In the case of COc1cc(Cn2cc(-c3cccs3)ccc2=S)cc(OC)c1OC [Compound 16b], the “percentage of annexin-positive cells” value (A375 cells [1]; 5 µM) is reported as 18.43 ± 2.90%, the “percentage of annexin-positive cells” value (A375 cells [1]; 10 µM) is reported as 30.50 ± 1.27% and the “time-lapse observation of A375 cells” value (A375 cells [2]; 2 µM) is reported as “cells also divided, but less effectively, divisions lasted longer, and finally, the confluence was lower than that in the control well”. The “time-lapse observation of A375 cells” value (A375 cells [2]; 10 µM) was “arrested mitosis resulted in mitotic slippage, leading to apoptosis or formation of binucleated cells”, the “percentage of A375 cells in the G2/M phase” value (“percentage of A375 cells” for short) (A375 cells [3]; 1 µM) was 33.79 ± 0.46% and the “percentage of A375 cells” value (A375 cells [3]; 5 µM) was 39.33 ± 5.27%. The “percentage of A375 cells” value (A375 cells [3]; 10 µM) was 44.52 ± 4.00%, the “effect on tubulin polymerization” value (tubulin; 100 µM) was “acted as tubulin polymerization inhibitors” and the IC50 (tubulin; Vmax normalised to control, read-out: tubulin polymerization inhibition IC50) was 37.3 ± 10.9 µM.
